Row | Structure (SMILES) | logP
1 | CNC(=O)OCc1c2c(n3c1C(OC(C)=O)CC3)C(=O)C(Cl)=C(OC)C2=O (centres undefined) | 2.08
2 | O=[N+]([O-])CCc1ccccc1 | 2.08
3 | CCOP(=O)(NC(C)C)Oc1ccc(SC)c(C)c1 (centres undefined) | 3.23
4 | Cc1ccc(OC(=O)N(C)C)cc1 | 2.03
5 | FC(F)(Cl)C(F)(Cl)Cl | 3.16
6 | O=C(Nc1ccccc1)N(c1ccccc1)c1ccccc1 | 3.28
7 | NCCNC(=O)c1ccccc1 | 0.06
8 | CCCCCCCN(C)/N=N/c1ccc(C(N)=O)cc1 | 4.2
9 | C1CCCC1 | 3
10 | CCNc1nc(Cl)nc(NCC)n1 | 2.18
11 | CCC(CC)C(=O)NC(N)=O | 0.91
12 | CNC(=S)NCCCCc1cnc[nH]1 | 0.39
13 | Brc1cccs1 | 2.75
14 | CCCCCOC(=O)NC | 1.96
15 | C[C@@H]1C[C@H]2C3C[C@H](F)C4=CC(=O)C=CC4(C)[C@@]3(F)[C@@H](O)CC2(C)[C@@]1(O)C(=O)COC(=O)C(C)(C)C (some centres undefined) | 3.86
16 | O=[N+]([O-])c1cc[n+]([O-])cc1 | -0.55
17 | O=C(O)CCC(Nc1ccc(Br)cc1)C(=O)O (centres undefined) | 1.12
18 | C#CC(C)(C)O | 0.28
19 | CC=Cc1c(OC)cc(Cc2cnc(N)nc2N)cc1OCC | 2.65
20 | CC(C)COC(=O)c1ccccc1C(=O)OCC(C)C | 4.11
21 | COP(=S)(OC)Oc1ccc([N+](=O)[O-])cc1 | 2.86
22 | CCCCOC(=O)n1cnc(CSCCNC(=NC#N)NC)c1C | 2.15

Row | Structure (SMILES) | logP
23 | CN(C)C(=O)c1cccnc1 | -0.48
24 | O=[N+]([O-])c1ccc(O)c(O)c1 | 1.66
25 | CNC(=O)Oc1cc(C)c(C)cc1C | 2.52
26 | CCCCCCOCc1cccc(NC(=O)OCCN2CCCCC2)c1 | 4.97
27 | CC(C)SC(C)C | 2.84
28 | O=S(=O)(O)c1ccc2ccccc2c1 | 0.63
29 | O=C(O)c1cccc(C(=O)O)c1 | 1.66
30 | CC(=NNC(=S)NNC(=S)N(C)C)c1ccccn1 | 1.25
31 | CC(=O)Oc1ccccc1[N+](=O)[O-] | 1.55
32 | CCC(C)OC(=O)C(C(=O)OC(C)CC)=C1SCCS1 (centres undefined) | 4.53
33 | CNS(=O)(=O)c1ccc(N)cc1 | -0.01
34 | O=[N+]([O-])c1ccccc1O | 1.79
35 | CC(C)(C)N | 0.4
36 | COc1ccccc1C(C)=O | 1.82
37 | CCC(=O)OC1(C(=O)CCl)C(C)CC2C3CCC4=CC(=O)C=CC4(C)C3C(=O)CC21C (centres undefined) | 3.3
38 | O=C(O)CCn1nnc2ccccc21 | -0.63
39 | Clc1cc(Cl)c(-c2ccccc2)c(Cl)c1 | 5.47
40 | CC1CN1C1=C(F)C(=O)C(N2CC2C)=C(F)C1=O (centres undefined) | 1.61
41 | CCOP(=S)(OCC)Oc1ccc(SC)cc1 | 4.16
42 | CCc1ccc(OC(=O)NC)cc1 | 2.23
43 | C[C@H]1C[C@H]2[C@@H]3CCC4=CC(=O)C=C[C@]4(C)[C@@]3(F)[C@@H](O)C[C@]2(C)[C@@]1(O)C(=O)CCl | 2.48
44 | CC(C(=O)O)c1ccc(-c2ccccc2)c(F)c1 (centres undefined) | 4.16

Row | Structure (SMILES) | logP
45 | CN(C)C(=O)Nc1ccc(C(C)(C)C)cc1 | 3.1
46 | CCc1ccc(O)cc1 | 2.58
47 | COC1=C(N2CC2)C(=O)C(OC)=C(N2CC2)C1=O | 0.17
48 | CN(C)C(=O)OCc1ccc(Cl)cc1 | 2.93
49 | CNC(=O)Oc1ccccc1OC(C)C | 1.52
50 | NC(=O)c1ccco1 | -0.11
51 | CCOC(=O)C(=Cc1cccc(C)c1)C(=O)OCC | 3.55
52 | O=c1cc[nH]cn1 | -1.38
53 | O=C[C@H](O)[C@@H](O)[C@H](O)[C@H](O)C(=O)O | -2.57
54 | FC(F)(F)Cl | 1.65
55 | CCN(CC)CCOC(=O)C=Cc1ccc(F)cc1 | 3.52
56 | c1cc2nc[nH]c2cn1 | 0.18
57 | Oc1cccc2c(Cl)ccnc12 | 2.67
58 | O=C(O)COc1ccc(Cl)c(Cl)c1 | 2.81
59 | OCc1ccncc1 | 0.06
60 | Cc1ccc(NS(=O)(=O)C(F)(F)F)cc1 | 3.6
61 | CC(=O)c1cccs1 | 1.25
62 | CCc1ccccc1N | 1.74
63 | Clc1cc(Cl)nc(Cl)c1 | 2.68
64 | c1ccc(-c2cnc(-c3ccccc3)o2)cc1 | 4.67
